Test results published in patent US11827917B1, “Methods for the conversion of fermentable sugars to ethanol” (Colorado State University Research Foundation, priority 2020, dated 2023).
Entries after “also recorded” stand apart in the source; their conditions may differ. Marks after values point to notes of the source that are not given here.

How the values were obtained:
Type in all cases: cell-based, Saccharomyces cerevisiae
S. cerevisiae ATCC 26603 = test: Serum-bottle cultivation in YPD, different yeast strains; details: 0.2%; for DCW / DCW Δ vs. ref / OD600 / OD600 Δ vs. ref: S. cerevisiae ATCC 26603, YPD
S. cerevisiae JAY 240 = test: as above; details: 0.2%; for DCW / DCW Δ vs. ref / OD600 / OD600 Δ vs. ref: S. cerevisiae JAY 240, YPD
S. cerevisiae JAY 241 = test: as above; details: 0.2%; for DCW Δ vs. ref / OD600 / OD600 Δ vs. ref: S. cerevisiae JAY 241, YPD
S. cerevisiae JAY 270 [1] = test: Growth test in liquid YNB medium, low/high nitrogen, serum bottles; details: 40, 200, 1000 mg/L; low and high nitrogen media
Experimental: A second set of tests was performed in a defined liquid medium, Yeast Nitrogen Base with Glucose (YNB), containing (NH4)2SO4 at either low (1 mM) or high (10 mM) nitrogen content. […] All serum bottles were incubated in a shaker at 30° C. and 150 RPM. Each treatment was performed in biological duplicate. Samples were collected at 0, 5, and 10 hours.

S. cerevisiae JAY 270 [2] = test: Screening of growth in 24-well plates on YPDA; details: for Cell growth score (colony size): YPDA, 30° C., 24 h; for Concentration at which cell growth was reduced in the plate assay: molar equivalent of the % w/v value; for Effect on cell growth in the plate assay (words): tested concentrations
Experimental: Procedure: An inoculum culture of S. cerevisiae JAY 270 was grown in 100 mL of yeast extract-peptone-dextrose (YPD) medium (10 g/L yeast extract, 20 g/L peptone, 20 g/L glucose) in 200-mL serum bottles overnight in a shaker at 30° C. and 200 rpm. The cells were collected by centrifuging 10 min at 4000×g and 4° C. To wash off the medium residue, the cell pellet was resuspended in 30 mL of sterile 0.8% (w/v) NaCl solution and centrifuged at 4000×g for 10 min. The cell pellet was washed twice. Finally, the cell pellet was resuspended and diluted in 0.8% (w/v) NaCl to achieve cell concentrations of OD600=0.02 and 0.2.
The eight compounds were added in YPDA separately at 0.03%, 0.05%, 0.1%, and 0.2% (w/v). The standard control treatment contained only YPDA medium without addition of these compounds. Since the TrpOH and TyrOH stock solutions were dissolved in DMSO, the controls for those tests were YPDA with the same concentration of DMSO. A 3-mL aliquot of YPDA medium with or without the test compounds were loaded in each well of the 24-well plate.
Ten μL of the prepared S. cerevisiae JAY 270 cell suspension at OD600=0.02 or 0.2 was loaded onto the YPDA medium in each well of the 24-well plates. Then the plates were sealed with Parafilm and incubated at 30° C. for 24 h. There were four biological replicates for each treatment.
Yeast cell growth was evaluated by visual observation of the colony size in the well and scored as 0, +, ++, and +++.

[3] = S. cerevisiae ATCC 26603, YPD (Table 9B)
[4] = S. cerevisiae JAY 240, YPD (Table 9B)
[5] = S. cerevisiae JAY 241, YPD (Table 9B)

OCCc1c[nH]c2ccccc12 [TrpOH, tryptophol]
Biomass Yield (S. cerevisiae ATCC 26603; S. cerevisiae ATCC 26603): 0.059 ± 0.001 g/g | Biomass yield % change vs. control (S. cerevisiae ATCC 26603; S. cerevisiae ATCC 26603): −17* % | EtOH yield (S. cerevisiae ATCC 26603; S. cerevisiae ATCC 26603): 0.495 ± 0.008 g/g | Glycerol yield (S. cerevisiae ATCC 26603; S. cerevisiae ATCC 26603): 0.054 ± 0.005 g/g | Glycerol yield % change vs. control (S. cerevisiae ATCC 26603; S. cerevisiae ATCC 26603): −25* % | DCW (S. cerevisiae ATCC 26603): 1.13 mg | DCW Δ vs. ref (S. cerevisiae ATCC 26603): 64.2% | OD600 (S. cerevisiae ATCC 26603): 0.77 | OD600 Δ vs. ref (S. cerevisiae ATCC 26603): 54.8% | Biomass Yield (S. cerevisiae ATCC 26603; [3]): 0.059 + 0.001 g/g | Biomass yield Δ vs. ref (S. cerevisiae ATCC 26603; [3]): −16.7% | Ethanol yield (S. cerevisiae ATCC 26603; [3]): 0.495 ± 0.008 g/g | Ethanol yield Δ vs. ref (S. cerevisiae ATCC 26603; [3]): 14.2% | Glycerol yield (S. cerevisiae ATCC 26603; [3]): 0.054 ± 0.005 g/g | Glycerol yield Δ vs. ref (S. cerevisiae ATCC 26603; [3]): −24.74% | Biomass Yield (S. cerevisiae JAY 240; S. cerevisiae JAY 240): 0.055 ± 0.006 g/g | Biomass yield % change vs. control (S. cerevisiae JAY 240; S. cerevisiae JAY 240): −24* % | EtOH yield (S. cerevisiae JAY 240; S. cerevisiae JAY 240): 0.464 ± 0.053 g/g | Glycerol yield (S. cerevisiae JAY 240; S. cerevisiae JAY 240): 0.035 ± 0.000 g/g | Glycerol yield % change vs. control (S. cerevisiae JAY 240; S. cerevisiae JAY 240): −12* % | DCW (S. cerevisiae JAY 240): 1.55 mg | DCW Δ vs. ref (S. cerevisiae JAY 240): 50.8% | OD600 (S. cerevisiae JAY 240): 1.12 | OD600 Δ vs. ref (S. cerevisiae JAY 240): 45.0% | Biomass Yield (S. cerevisiae JAY 240; [4]): 0.055 + 0.006 g/g | Biomass yield Δ vs. ref (S. cerevisiae JAY 240; [4]): −23.5% | Ethanol yield (S. cerevisiae JAY 240; [4]): 0.464 ± 0.053 g/g | Ethanol yield Δ vs. ref (S. cerevisiae JAY 240; [4]): 14.5% | Glycerol yield (S. cerevisiae JAY 240; [4]): 0.035 ± 0.000 g/g | Glycerol yield Δ vs. ref (S. cerevisiae JAY 240; [4]): −11.63% | Biomass Yield (S. cerevisiae JAY 241; S. cerevisiae JAY 241): 0.063 ± 0.004 g/g | Biomass yield % change vs. control (S. cerevisiae JAY 241; S. cerevisiae JAY 241): +8.6% | EtOH yield (S. cerevisiae JAY 241; S. cerevisiae JAY 241): 0.435 ± 0.035 g/g | Glycerol yield (S. cerevisiae JAY 241; S. cerevisiae JAY 241): 0.041 ± 0.004 g/g | Glycerol yield % change vs. control (S. cerevisiae JAY 241; S. cerevisiae JAY 241): −26* % | DCW Δ vs. ref (S. cerevisiae JAY 241): 58.5% | OD600 (S. cerevisiae JAY 241): 1.00 | OD600 Δ vs. ref (S. cerevisiae JAY 241): 50.1% | Biomass Yield (S. cerevisiae JAY 241; [5]): 0.063 + 0.004 g/g | Biomass yield Δ vs. ref (S. cerevisiae JAY 241; [5]): 8.6% | Ethanol yield (S. cerevisiae JAY 241; [5]): 0.435 ± 0.035 g/g | Ethanol yield Δ vs. ref (S. cerevisiae JAY 241; [5]): 13.8% | Glycerol yield (S. cerevisiae JAY 241; [5]): 0.041 ± 0.004 g/g | Glycerol yield Δ vs. ref (S. cerevisiae JAY 241; [5]): −25.72% | Inhibitory effect on yeast cell growth in liquid YNB medium (S. cerevisiae JAY 270 [1]): strongest inhibitory effect | Cell growth score (colony size) (S. cerevisiae JAY 270 [2]; 0.03% (w/v)): +++ | Cell growth score (colony size) (S. cerevisiae JAY 270 [2]; 0.05% (w/v)): ++ | Cell growth score (colony size) (S. cerevisiae JAY 270 [2]; 0.10% (w/v)): + | Cell growth score (colony size) (S. cerevisiae JAY 270 [2]; 0.20% (w/v)): 0 | Concentration at which cell growth was reduced in the plate assay (S. cerevisiae JAY 270 [2]): 3.1 mM | Effect on cell growth in the plate assay (words) (S. cerevisiae JAY 270 [2]; 24-well plates): inhibited growth; also recorded: reduced the growth | Concentration at which cell growth was reduced/inhibited in the plate assay (S. cerevisiae JAY 270 [2]; w/v, 24-well plates): 0.05%

OCCc1ccc(O)cc1 [TyrOH, Tyrosol]
Biomass Yield (S. cerevisiae ATCC 26603; S. cerevisiae ATCC 26603): 0.056 ± 0.003 g/g | Biomass yield % change vs. control (S. cerevisiae ATCC 26603; S. cerevisiae ATCC 26603): −21* % | EtOH yield (S. cerevisiae ATCC 26603; S. cerevisiae ATCC 26603): 0.467 ± 0.015 g/g | EtOH yield % change vs. control (S. cerevisiae ATCC 26603; S. cerevisiae ATCC 26603): +7.7* % | Glycerol yield (S. cerevisiae ATCC 26603; S. cerevisiae ATCC 26603): 0.064 ± 0.006 g/g | Glycerol yield % change vs. control (S. cerevisiae ATCC 26603; S. cerevisiae ATCC 26603): −12* % | DCW (S. cerevisiae ATCC 26603): 1.53 mg | DCW Δ vs. ref (S. cerevisiae ATCC 26603): 86.8% | OD600 (S. cerevisiae ATCC 26603): 1.34 | OD600 Δ vs. ref (S. cerevisiae ATCC 26603): 95.5% | Biomass Yield (S. cerevisiae ATCC 26603; [3]): 0.056 + 0.003 g/g | Biomass yield Δ vs. ref (S. cerevisiae ATCC 26603; [3]): −20.6% | Ethanol yield (S. cerevisiae ATCC 26603; [3]): 0.467 ± 0.015 g/g | Ethanol yield Δ vs. ref (S. cerevisiae ATCC 26603; [3]): 7.7% | Glycerol yield (S. cerevisiae ATCC 26603; [3]): 0.064 ± 0.006 g/g | Glycerol yield Δ vs. ref (S. cerevisiae ATCC 26603; [3]): −11.82% | Biomass Yield (S. cerevisiae JAY 240; S. cerevisiae JAY 240): 0.061 ± 0.002 g/g | Biomass yield % change vs. control (S. cerevisiae JAY 240; S. cerevisiae JAY 240): −16* % | EtOH yield (S. cerevisiae JAY 240; S. cerevisiae JAY 240): 0.446 ± 0.022 g/g | Glycerol yield (S. cerevisiae JAY 240; S. cerevisiae JAY 240): 0.034 ± 0.001 g/g | Glycerol yield % change vs. control (S. cerevisiae JAY 240; S. cerevisiae JAY 240): −15* % | DCW (S. cerevisiae JAY 240): 2.65 mg | DCW Δ vs. ref (S. cerevisiae JAY 240): 86.9% | OD600 (S. cerevisiae JAY 240): 2.09 | OD600 Δ vs. ref (S. cerevisiae JAY 240): 83.9% | Biomass Yield (S. cerevisiae JAY 240; [4]): 0.061 + 0.002 g/g | Biomass yield Δ vs. ref (S. cerevisiae JAY 240; [4]): −15.7% | Ethanol yield (S. cerevisiae JAY 240; [4]): 0.446 ± 0.022 g/g | Ethanol yield Δ vs. ref (S. cerevisiae JAY 240; [4]): 10.1% | Glycerol yield (S. cerevisiae JAY 240; [4]): 0.034 ± 0.001 g/g | Glycerol yield Δ vs. ref (S. cerevisiae JAY 240; [4]): −14.77% | Biomass Yield (S. cerevisiae JAY 241; S. cerevisiae JAY 241): 0.049 ± 0.000 g/g | Biomass yield % change vs. control (S. cerevisiae JAY 241; S. cerevisiae JAY 241): −16* % | EtOH yield (S. cerevisiae JAY 241; S. cerevisiae JAY 241): 0.422 ± 0.013 g/g | Glycerol yield (S. cerevisiae JAY 241; S. cerevisiae JAY 241): 0.043 ± 0.000 g/g | Glycerol yield % change vs. control (S. cerevisiae JAY 241; S. cerevisiae JAY 241): −23* % | DCW Δ vs. ref (S. cerevisiae JAY 241): 88.7% | OD600 (S. cerevisiae JAY 241): 1.68 | OD600 Δ vs. ref (S. cerevisiae JAY 241): 84.0% | Biomass Yield (S. cerevisiae JAY 241; [5]): 0.049 + 0.000 g/g | Biomass yield Δ vs. ref (S. cerevisiae JAY 241; [5]): −15.7% | Ethanol yield (S. cerevisiae JAY 241; [5]): 0.422 ± 0.013 g/g | Ethanol yield Δ vs. ref (S. cerevisiae JAY 241; [5]): 10.4% | Glycerol yield (S. cerevisiae JAY 241; [5]): 0.043 ± 0.000 g/g | Glycerol yield Δ vs. ref (S. cerevisiae JAY 241; [5]): −23.39% | Inhibitory effect on yeast cell growth in liquid YNB medium (S. cerevisiae JAY 270 [1]): inhibitory at 1000 mg/L in both media, but not at 40 and 200 mg/L | Cell growth score (colony size) (S. cerevisiae JAY 270 [2]; 0.03% (w/v)): +++ | Cell growth score (colony size) (S. cerevisiae JAY 270 [2]; 0.05% (w/v)): +++ | Cell growth score (colony size) (S. cerevisiae JAY 270 [2]; 0.10% (w/v)): +++ | Cell growth score (colony size) (S. cerevisiae JAY 270 [2]; 0.20% (w/v)): + | Concentration at which cell growth was reduced in the plate assay (S. cerevisiae JAY 270 [2]): 7.2 mM | Effect on cell growth in the plate assay (words) (S. cerevisiae JAY 270 [2]; 24-well plates): inhibited growth; also recorded: reduced the growth
